Measured values as given in patent publication US20240109877A1, “PYRIMIDINES FOR DEGRADING BRUTON'S TYROSINE KINASE” (AbbVie Inc., priority 2022, published 2024).

What was measured:
[1] = target: BTK protein in human whole blood (Homo sapiens (Human), UniProt Q06187); assay: Btk protein in human whole blood MSD ELISA based assay (Btk degradation); format: cell-based; details: human whole blood from healthy donors, 6 hours at 37° C., half maximal degradation concentration; read-out: hWB BTK DC50
Procedure: Btk protein degradation was tested using an Meso Scale Discovery-ELISA system (MSD-ELISA): (1) Test compounds were added to human whole blood; (2) human whole blood cells treated with test compounds were lysed; (3) lysed cells were treated with capture antibody, an antibody to Btk; (4) lysed cells were treated with […] to Btk; and (5) lysed cells were treated with anti-mouse antibody (tagged).
Specifically, about 80 μl of fresh human whole blood from healthy donors was transferred into each well of a 96-well V-bottom plate (Costar, Cat No.3894). Using a TECANTM D300e Digital Dispenser (Tecan)), 1:4 serially diluted compounds [(8 pt assay) in DMSO solution (final 0.2%) starting at 3 μM top concentration], were added in duplicate. Thereafter, plates were placed in a 37° C. incubator and incubated for 6 hours.
At the end of incubation, 80 μl of 2× CST lysis buffer (Cell Signaling Technology, Cat No. 9803), prepared from a 10× stock solution, was added per well to lyse the blood. Plates were then sealed with a plate sealer and the samples were frozen overnight at −80° C.
Total amount of BTK protein remaining in the blood samples after compound treatment was measured using MSD-ELISA. After thawing the frozen plates, blood lysates were mixed thoroughly and transferred to small spot high-bind MSD plates (Meso Scale Discovery, Cat No. L45XB-3) and coated with capturing antibody, rabbit anti-human BTK (D3H5) (Cell Signaling Technology, Cat No. 8547CF). Thereafter, primary detection antibody, mouse anti-human BTK monoclonal antibody, (BD Biosciences, Cat No. 611117) and secondary detection antibody, anti-mouse SULFO-TAG (Meso Scale Discovery, Cat No. R32AC-1) were added. The assay plates were read on an MSD S600 plate reader by the addition of 2× MSD read buffer (Meso Scale Discovery, R92TC-1). All reagent transfers, including blood lysis, was conducted using a Biomed i7 liquid handler. From the dose response curves, DC50 values were calculated by averaging data from duplicate experiments. and Curve fitting was done by non-linear regression using GraphPad Prism. The DC50 values are reported in Table 2 in the hWB BTK DC50 (nM) column The Dmax values represent the maximum amount of BTK degradation observed upon compound treatment compared to DMSO only treated samples. The dMax (%) values are reported in Table 2 in the hWB BTK dMax (%) column.

BTK in mouse bone marrow = BTK in mouse bone marrow (Mus musculus (Mouse), UniProt P35991); assay: Mouse Bone Marrow Assay (MSD ELISA of BTK degradation in mouse bone marrow); format: in vivo; details: female C57BL/6J mice, single dose of Dose A, bone marrow collected after 24 hours, % remaining BTK in vehicle versus treated samples
Procedure: Female C57BL/6J mice (Jackson Laboratories) were used for this study. Compounds or vehicle/control were prepped with EtOH; PEG-400; Phosal 53 MCT (10:30:60, v/v). Four mice were tested per compound or vehicle/control. On Day 1, mice were administered a single dose of Dose A. On Day 2 (after 24 hours), tissue (bone marrow) was collected from one hind leg per mouse.
An MSD (Meso Scale Discovery) ELISA (enzyme-linked immunosorbent assay) based assay was used to determine BTK degradation in mouse bone marrow. The following materials and equipment were used: 10% NP40 solution (nonionic polyoxyethylene surfactant, ThermoFisher, cat no. 28324); protease inhibitor mini tablet (Roche, cat no. 05 892 970 001); PhosphoSTOP™ tablet (Roche, cat no. 04 906 837 001); Pierce™ BCA Protein Assay Kit (Thermofisher, Cat No. 23225); Precellys® 2 mL lysing tube with 2.8 mm beads (VWR, cat no. 10032-756); Bertin Precellys® 24/Cryolys ® cooling system; 96-well MSD streptavidin pre-coated plates (MSD, cat no. L15SA-1); MSD Blocker A (MSD, cat no. R93BA-4); capture antibody, biotinylated BTK mAb (BD Biosciences, cat no. 624008; custom order); primary detection antibody, BTK RpAb (rabbit polyclonal antibody, CST, cat no. 8547S, D3H5 clone); secondary detection antibody, anti-Rabbit-Sulfo-Tag (MSD, cat no. R32AB-1); read Buffer, 4× (MSD, cat no. R92TC-1); recombinant BTK protein (Thermofisher, cat no. PR5442A); MSD Tris Wash Buffer (10×) (MSD, cat no. R61TX-1); PBS (phosphate-buffered saline); deionized water (diH2O); Lysis Buffer [0.2% NP40 in PBS+Protease Inhibitor tablet (1 tablet/10 mL)+PhosphoSTOP tablet (1 tablet/10 mL)]; 3% MSD Blocker A [MSD Blocker A+450 mL diH2O+50 mL]; and 10× MSD Tris Wash Buffer.
Lysis buffer [(PBS+0.2% NP40+PI (protease inhibitor)+PhosphoSTOP)]was prepared and put on ice until it was fully cold. Ice cold lysis buffer […] was added to each Precellys® tube containing beads and bone marrow sample. Sample tubes were transferred into Precellys® machine and homogenized using 5000 rpm -2×20 seconds. The sample lysates were centrifuged at 14,000 rpm for 20 minutes at 4° C. after homogenizing.
The protein concentration was determined using Pierce™ BCA Protein Assay Kit following manufacturer's recommended protocol. The protein normalized working solution was prepared, using 30 μg protein per sample lysate for assay.
A 300 ng/ml working stock solution of recombinant BTK protein in lysis buffer was prepared, and the sample was serially diluted at 3-fold dilution (10-point assay, highest concentration was 300 ng/mL and lowest concentration was 0.015 ng/mL)
MSD plate coating: Coating antibody (biotinylated-BTK mAb) stock solution was prepared at 1 μg/mL in PBS buffer. 50 μL/well capture antibody (Biotinylated BTK mAb) solution was added, and the plates were shaken gently at ambient temperature for two hours. The plates were washed 3 times with 1× MSD Tris Wash Buffer in a plate washer (300 μL/well), and the plates were blocked with 3% MSD Blocker A (150 μL/well). The plates were incubated for an additional 1-2 hours at ambient temperature with gentle shaking. The plates were washed 3 times with 1× MSD wash buffer using plate washer. Bone marrow lysates (30 μg) at a final volume of 50 μL/well were added into the plates. The serially diluted standard samples were added to the same plates at a final volume of 50 μL/well. The plates were incubated overnight at 4° C. with gentle shaking.
The plates were washed three times with 1× MSD wash buffer (prepared from 10× concentration buffer) using plate washer. Primary detection antibody at 50 μL/well was added (BTK RpAb; 1:1000 dilution in 1% MSD Blocker A). The plates were incubated for two hours at ambient temperature with gentle shaking. The plates were washed three times with 1× MSD wash buffer using plate washer. Anti-Rabbit-SULFO-TAG secondary antibodies (50 μl/well) were added, 1:500 diluted in 1% MSD Blocker A, and the plates were incubated for one to two hours at ambient temperature. […]

Sequence of BTK protein in human whole blood (Q06187 whole entry): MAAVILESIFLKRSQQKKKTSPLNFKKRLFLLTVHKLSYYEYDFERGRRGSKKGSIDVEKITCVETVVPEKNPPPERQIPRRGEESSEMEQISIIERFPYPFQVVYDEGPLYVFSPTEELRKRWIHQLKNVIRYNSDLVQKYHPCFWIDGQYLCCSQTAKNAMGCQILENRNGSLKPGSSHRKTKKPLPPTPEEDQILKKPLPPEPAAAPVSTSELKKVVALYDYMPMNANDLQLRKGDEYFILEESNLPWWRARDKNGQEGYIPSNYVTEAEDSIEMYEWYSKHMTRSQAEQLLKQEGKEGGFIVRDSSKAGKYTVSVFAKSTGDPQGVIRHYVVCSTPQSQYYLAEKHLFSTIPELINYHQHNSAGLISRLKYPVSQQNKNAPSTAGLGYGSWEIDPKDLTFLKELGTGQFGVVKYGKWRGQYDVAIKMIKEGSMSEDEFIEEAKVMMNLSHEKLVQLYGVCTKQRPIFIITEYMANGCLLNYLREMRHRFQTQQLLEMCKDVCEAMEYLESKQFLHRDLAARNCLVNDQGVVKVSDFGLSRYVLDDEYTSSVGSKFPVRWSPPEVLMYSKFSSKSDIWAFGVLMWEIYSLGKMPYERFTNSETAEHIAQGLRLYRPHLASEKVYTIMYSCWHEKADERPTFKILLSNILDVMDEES
Sequence of BTK in mouse bone marrow (P35991 whole entry): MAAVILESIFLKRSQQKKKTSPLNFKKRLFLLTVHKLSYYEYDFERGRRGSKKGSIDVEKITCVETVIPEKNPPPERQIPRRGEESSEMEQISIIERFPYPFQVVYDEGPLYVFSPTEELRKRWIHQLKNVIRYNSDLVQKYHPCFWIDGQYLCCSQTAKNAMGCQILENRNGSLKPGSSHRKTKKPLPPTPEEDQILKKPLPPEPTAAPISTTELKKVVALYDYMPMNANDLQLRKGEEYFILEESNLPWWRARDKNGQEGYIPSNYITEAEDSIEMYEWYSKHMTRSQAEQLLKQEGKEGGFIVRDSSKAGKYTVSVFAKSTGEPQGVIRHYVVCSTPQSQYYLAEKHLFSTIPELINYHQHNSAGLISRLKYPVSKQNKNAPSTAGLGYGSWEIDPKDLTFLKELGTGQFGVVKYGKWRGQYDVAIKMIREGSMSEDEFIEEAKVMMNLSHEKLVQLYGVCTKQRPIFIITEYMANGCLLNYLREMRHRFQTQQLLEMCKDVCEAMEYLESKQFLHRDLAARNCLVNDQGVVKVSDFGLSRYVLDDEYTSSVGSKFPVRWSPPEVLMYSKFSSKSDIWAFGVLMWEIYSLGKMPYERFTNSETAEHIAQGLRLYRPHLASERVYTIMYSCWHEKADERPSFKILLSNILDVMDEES

Compound | DC50 [1] [nM] | Mouse Bone Marrow (%), % remaining BTK (BTK in mouse bone marrow) [%]
Cc1cc(-c2cc(Nc3ccc(N4CCN(CCc5ccc(N6CCC(=O)NC6=O)cc5)C[C@H]4C)cn3)ncn2)ccc1[C@@H](C)NC(=O)c1nc(C(C)(C)C)no1 [Example 2, 3-tert-butyl-N-[(1R)-1-{4-[6-({5-[(2R)-4-{2-[4-(2,4-dioxo-1,3-diazinan-1-yl)phenyl]ethyl}-2-methylpiperazin-1-yl]pyridin-2-yl}amino)pyrimidin-4-yl]-2-methylphenyl}ethyl]-1,2,4-oxadiazole-5-carboxamide] | 5.93 | 12
Cc1cc(-c2cc(Nc3ccc(N4CCN(CCc5ccc(N6CCC(=O)NC6=O)c(F)c5)C[C@@H]4C)cn3)ncn2)ccc1[C@@H](C)NC(=O)c1nc(C(C)(C)C)no1 [Example 4, 3-tert-butyl-N-[(1R)-1-{4-[6-({5-[(2S)-4-{2-[4-(2,4-dioxo-1,3-diazinan-1-yl)-3-fluorophenyl]ethyl}-2-methylpiperazin-1-yl]pyridin-2-yl}amino)pyrimidin-4-yl]-2-methylphenyl}ethyl]-1,2,4-oxadiazole-5-carboxamide] | 7.62 | 13
Cc1cc(-c2cc(Nc3ccc(N4CCN(CCc5ccc(N6CCC(=O)NC6=O)c(F)c5)C[C@H]4C)cn3)ncn2)ccc1[C@@H](C)NC(=O)c1nc(C(C)(C)C)no1 [Example 5, 3-tert-butyl-N-[(1R)-1-{4-[6-({5-[(2R)-4-{2-[4-(2,4-dioxo-1,3-diazinan-1-yl)-3-fluorophenyl]ethyl}-2-methylpiperazin-1-yl]pyridin-2-yl}amino)pyrimidin-4-yl]-2-methylphenyl}ethyl]-1,2,4-oxadiazole-5-carboxamide] | 6 | 12
CC[C@H]1CN(CCc2ccc(N3CCC(=O)NC3=O)c(F)c2)CCN1c1ccc(Nc2cc(-c3ccc([C@@H](C)NC(=O)c4nc(C(C)(C)C)no4)c(C)c3)ncn2)nc1 [Example 7, 3-tert-butyl-N-[(1R)-1-{4-[6-({5-[(2S)-4-{2-[4-(2,4-dioxo-1,3-diazinan-1-yl)-3-fluorophenyl]ethyl}-2-ethylpiperazin-1-yl]pyridin-2-yl}amino)pyrimidin-4-yl]-2-methylphenyl}ethyl]-1,2,4-oxadiazole-5-carboxamide] | 18.7 | 22
Cc1cc(-c2cc(Nc3ccc(N4CCN(CCc5ccc(N6CCC(=O)NC6=O)cc5)CC4(C)C)cn3)ncn2)ccc1[C@@H](C)NC(=O)c1nc(C(C)(C)C)no1 [Example 9, 3-tert-butyl-N-{(1R)-1-[4-(6-{[5-(4-{2-[4-(2,4-dioxo-1,3-diazinan-1-yl)phenyl]ethyl}-2,2-dimethylpiperazin-1-yl)pyridin-2-yl]amino}pyrimidin-4-yl)-2-methylphenyl]ethyl}-1,2,4-oxadiazole-5-carboxamide] | 9.61 | 31

Stronger by DC50 [1], values ahead:

DC50 [1] [nM] | Mouse Bone Marrow (%), % remaining BTK (BTK in mouse bone marrow) [%] | Compound
4.08 | 11 | Cc1cc(-c2cc(Nc3ccc(N4CCN(CCc5ccc(N6CCC(=O)NC6=O)cc5)C[C@@H]4C)cn3)ncn2)ccc1[C@@H](C)NC(=O)c1nc(C(C)(C)C)no1 [Example 1, 3-tert-butyl-N-[(1R)-1-{4-[6-({5-[(2S)-4-{2-[4-(2,4-dioxo-1,3-diazinan-1-yl)phenyl]ethyl}-2-methylpiperazin-1-yl]pyridin-2-yl}amino)pyrimidin-4-yl]-2-methylphenyl}ethyl]-1,2,4-oxadiazole-5-carboxamide]
2.88 | 22 | Cc1cc(-c2cc(Nc3ccc(N4CCN(CCc5ccc(N6CCC(=O)NC6=O)cc5)CC4)cn3)ncn2)ccc1[C@@H](C)NC(=O)c1nc(C(C)(C)C)no1 [Example 3, 3-tert-butyl-N-{(1R)-1-[4-(6-{[5-(4-{2-[4-(2,4-dioxo-1,3-diazinan-1-yl)phenyl]ethyl}piperazin-1-yl)pyridin-2-yl]amino}pyrimidin-4-yl)-2-methylphenyl]ethyl}-1,2,4-oxadiazole-5-carboxamide]
2.45 | 19 | CC[C@H]1CN(CCc2ccc(N3CCC(=O)NC3=O)cc2)CCN1c1ccc(Nc2cc(-c3ccc([C@@H](C)NC(=O)c4nc(C(C)(C)C)no4)c(C)c3)ncn2)nc1 [Example 6, 3-tert-butyl-N-[(1R)-1-{4-[6-({5-[(2S)-4-{2-[4-(2,4-dioxo-1,3-diazinan-1-yl)phenyl]ethyl}-2-ethylpiperazin-1-yl]pyridin-2-yl}amino)pyrimidin-4-yl]-2-methylphenyl}ethyl]-1,2,4-oxadiazole-5-carboxamide]
4.04 | 30 | CC[C@@H]1CN(CCc2ccc(N3CCC(=O)NC3=O)cc2)CCN1c1ccc(Nc2cc(-c3ccc([C@@H](C)NC(=O)c4nc(C(C)(C)C)no4)c(C)c3)ncn2)nc1 [Example 8, 3-tert-butyl-N-[(1R)-1-{4-[6-({5-[(2R)-4-{2-[4-(2,4-dioxo-1,3-diazinan-1-yl)phenyl]ethyl}-2-ethylpiperazin-1-yl]pyridin-2-yl}amino)pyrimidin-4-yl]-2-methylphenyl}ethyl]-1,2,4-oxadiazole-5-carboxamide]
2.27 | 17 | Cc1cc(-c2cc(Nc3ccc(N4CCN(CCc5ccc(N6CCC(=O)NC6=O)cc5)CC4)cn3)ncn2)c(F)cc1[C@@H](C)NC(=O)c1nc(C(C)(C)C)no1 [Example 12, 3-tert-butyl-N-{(1R)-1-[4-(6-{[5-(4-{2-[4-(2,4-dioxo-1,3-diazinan-1-yl)phenyl]ethyl}piperazin-1-yl)pyridin-2-yl]amino}pyrimidin-4-yl)-5-fluoro-2-methylphenyl]ethyl}-1,2,4-oxadiazole-5-carboxamide]
